Data from patent US8952034B2, “Fused heterocyclic compounds as ion channel modulators” (Gilead Sciences, Inc., priority 2009, dated 2015).

Target: wild-type human cardiac sodium channel, hNav1.5 (Homo sapiens, UniProt Q14524)
Assay: Late INa screening assay (automated whole cell patch clamp, PatchXpress)
Format: cell-based
Conditions: compound at 1 μM; HEK293 cells expressing hNav1.5; late INa generated with 10 μM Tefluthrin (or 50 nM ATX II); read-out: LateINa_1 uM (percent block of late INa)
Method in brief: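 Late sodium current through wild-type human hNav1.5 stably expressed in HEK293 cells (no beta subunits) was recorded by automated whole-cell patch clamp on a PatchXpress 7000A at 24-27° C. Late INa was induced with 10 μM Tefluthrin or 50 nM ATX II. Cells were stepped from −120 mV to −20 mV for 250 ms at 0.1 Hz, and percent block was normalized to current in Na-free extracellular solution.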

Chain of wild-type human cardiac sodium channel, hNav1.5 (Q14524 whole entry): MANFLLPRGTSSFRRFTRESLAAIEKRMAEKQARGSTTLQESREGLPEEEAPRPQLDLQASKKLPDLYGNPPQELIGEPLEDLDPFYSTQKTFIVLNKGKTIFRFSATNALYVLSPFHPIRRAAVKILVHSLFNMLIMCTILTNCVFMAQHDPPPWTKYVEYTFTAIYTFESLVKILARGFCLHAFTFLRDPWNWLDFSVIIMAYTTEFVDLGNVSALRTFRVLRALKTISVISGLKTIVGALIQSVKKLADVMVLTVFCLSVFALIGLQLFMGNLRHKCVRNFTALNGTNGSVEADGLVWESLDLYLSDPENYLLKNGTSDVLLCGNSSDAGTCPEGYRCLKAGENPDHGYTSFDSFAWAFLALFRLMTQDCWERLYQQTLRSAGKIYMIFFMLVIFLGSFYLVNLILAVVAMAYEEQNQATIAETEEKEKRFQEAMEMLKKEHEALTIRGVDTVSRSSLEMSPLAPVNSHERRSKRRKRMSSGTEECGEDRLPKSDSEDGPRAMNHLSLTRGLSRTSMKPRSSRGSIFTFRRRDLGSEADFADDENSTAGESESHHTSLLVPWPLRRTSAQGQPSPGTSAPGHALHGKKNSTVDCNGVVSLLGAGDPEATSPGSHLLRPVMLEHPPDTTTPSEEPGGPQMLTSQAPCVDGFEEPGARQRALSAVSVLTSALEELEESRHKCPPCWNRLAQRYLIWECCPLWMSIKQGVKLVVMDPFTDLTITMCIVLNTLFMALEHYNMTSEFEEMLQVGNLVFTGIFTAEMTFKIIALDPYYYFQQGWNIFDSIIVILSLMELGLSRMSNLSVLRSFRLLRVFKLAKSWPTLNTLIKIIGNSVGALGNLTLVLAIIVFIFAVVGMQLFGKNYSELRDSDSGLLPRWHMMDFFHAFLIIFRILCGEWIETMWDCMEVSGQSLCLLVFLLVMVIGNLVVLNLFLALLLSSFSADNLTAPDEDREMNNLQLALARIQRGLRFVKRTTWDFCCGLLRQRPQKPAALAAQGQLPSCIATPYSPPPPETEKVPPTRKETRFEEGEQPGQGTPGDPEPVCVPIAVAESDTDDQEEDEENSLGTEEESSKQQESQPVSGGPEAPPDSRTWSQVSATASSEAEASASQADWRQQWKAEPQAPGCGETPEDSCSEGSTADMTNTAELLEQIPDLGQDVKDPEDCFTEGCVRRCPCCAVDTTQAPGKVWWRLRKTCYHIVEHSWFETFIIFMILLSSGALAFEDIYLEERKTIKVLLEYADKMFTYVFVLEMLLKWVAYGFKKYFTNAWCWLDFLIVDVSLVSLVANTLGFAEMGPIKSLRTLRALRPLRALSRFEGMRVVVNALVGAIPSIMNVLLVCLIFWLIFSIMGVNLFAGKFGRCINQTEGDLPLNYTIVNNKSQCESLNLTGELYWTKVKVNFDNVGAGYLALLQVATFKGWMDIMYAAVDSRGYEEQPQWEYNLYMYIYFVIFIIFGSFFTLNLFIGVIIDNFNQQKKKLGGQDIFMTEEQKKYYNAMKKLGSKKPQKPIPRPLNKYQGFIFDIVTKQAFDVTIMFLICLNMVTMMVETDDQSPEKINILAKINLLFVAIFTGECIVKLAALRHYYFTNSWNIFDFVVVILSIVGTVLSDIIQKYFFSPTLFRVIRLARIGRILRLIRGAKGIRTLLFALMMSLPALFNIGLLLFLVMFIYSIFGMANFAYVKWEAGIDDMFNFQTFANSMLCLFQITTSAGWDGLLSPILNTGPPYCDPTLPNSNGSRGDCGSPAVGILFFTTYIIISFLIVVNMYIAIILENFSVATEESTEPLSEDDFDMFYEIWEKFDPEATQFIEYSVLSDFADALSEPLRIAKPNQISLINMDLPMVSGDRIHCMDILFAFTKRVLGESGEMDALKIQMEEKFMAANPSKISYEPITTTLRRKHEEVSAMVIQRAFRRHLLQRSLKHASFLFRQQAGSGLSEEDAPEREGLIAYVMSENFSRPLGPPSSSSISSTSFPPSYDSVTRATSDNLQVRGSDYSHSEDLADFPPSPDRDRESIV

With `CC(C)Oc1cc(OC(F)(F)F)ccc1-c1ccc2nnc(C(F)(F)F)n2c1` [BHN-223, 6-[2-(propan-2-yloxy)-4-(trifluoromethoxy)phenyl]-3-(trifluoromethyl)[1,2,4]triazolo[4,3-a]pyridine] the inhibition at 1 µM was 54.5%.
